12 molecules from ChEMBL document CHEMBL4725232, “Synthesis and biological activity of new bisbenzofuran-imidazolium salts” (Bioorg Med Chem Lett, 2020) can be followed below.

As a reminder, the IC50 is the concentration that inhibits the measured activity by half. A low value points to inhibition by little substance.

For the first assay, the system named is HL-60. Nature of the assay: Antiproliferative activity against human HL60 cells by MTS assay. It counts as functional, cell-based.
Molecule `O=C(C[n+]1cn(CC=C(c2cc3ccccc3o2)c2cc3ccccc3o2)c2ccccc21)c1ccc2ccccc2c1` returned an IC50 of 1.63 µM.
Take `Cc1nc2ccccc2n1CC=C(c1cc2ccccc2o1)c1cc2ccccc2o1`: the concentration for half-maximal inhibition (IC50) was > 20 µM.
For the molecule `O=C(C[n+]1cn(CC=C(c2cc3ccccc3o2)c2cc3ccccc3o2)c2ccccc21)c1ccccc1`, the IC50 was 1.44 µM. That is a single-digit micromolar value.
On to `Cc1cc2ncn(CC=C(c3cc4ccccc4o3)c3cc4ccccc4o3)c2cc1C`, for which the half-inhibitory concentration (IC50) was > 20 µM.
With `C(Cn1ccnc1)=C(c1cc2ccccc2o1)c1cc2ccccc2o1`, the IC50 was > 20 µM.
Take `Cc1n(CC=C(c2cc3ccccc3o2)c2cc3ccccc3o2)c2ccccc2[n+]1CC(=O)c1ccccc1`: inhibition was half-maximal at 1.08 µM (IC50).
Molecule `O=C(C[n+]1ccn(CC=C(c2cc3ccccc3o2)c2cc3ccccc3o2)c1)c1ccccc1` had a half-inhibitory concentration (IC50) of 6.95 µM. Against the preceding molecule, the IC50 is about 6.4-fold higher.
Turning to `COc1ccc(C(=O)C[n+]2cn(CC=C(c3cc4ccccc4o3)c3cc4ccccc4o3)c3cc(C)c(C)cc32)cc1`, the midpoint of inhibition, the IC50, lay at 8 µM.
In the case of `COc1ccc(C(=O)C[n+]2ccn(CC=C(c3cc4ccccc4o3)c3cc4ccccc4o3)c2)cc1`, the IC50 was > 20 µM.
As for `O=C(C[n+]1cn(CC=C(c2cc3ccccc3o2)c2cc3ccccc3o2)c2ccccc21)c1ccc(Br)cc1`, 1.73 µM corresponded to half-maximal inhibition (IC50). This lies in the single-digit micromolar range.
Same read-out and setting: the value for `O=C(C[n+]1ccn(CC=C(c2cc3ccccc3o2)c2cc3ccccc3o2)c1)c1ccc(-c2ccccc2)cc1` was 7.25 µM; that for `C(Cn1cnc2ccccc21)=C(c1cc2ccccc2o1)c1cc2ccccc2o1` was > 20 µM.

The test system of the next assay is SMMC-7721. Nature of the assay: Antiproliferative activity against human SMMC7721 by MTS assay. It counts as functional, cell-based.
As to `O=C(C[n+]1cn(CC=C(c2cc3ccccc3o2)c2cc3ccccc3o2)c2ccccc21)c1ccc2ccccc2c1`, inhibition was half-maximal at 1.46 µM (IC50).
Take `Cc1nc2ccccc2n1CC=C(c1cc2ccccc2o1)c1cc2ccccc2o1`: the half-maximal inhibitory concentration (IC50) was > 20 µM.
Turning to `O=C(C[n+]1cn(CC=C(c2cc3ccccc3o2)c2cc3ccccc3o2)c2ccccc21)c1ccccc1`, half-maximal inhibition (IC50) required 3.93 µM. In other words, the single-digit micromolar range.
Consider `Cc1cc2ncn(CC=C(c3cc4ccccc4o3)c3cc4ccccc4o3)c2cc1C`, for which the IC50 is > 20 µM.
On the same count and under the same terms, the same measure for `C(Cn1ccnc1)=C(c1cc2ccccc2o1)c1cc2ccccc2o1`: > 20 µM.
In turn, `Cc1n(CC=C(c2cc3ccccc3o2)c2cc3ccccc3o2)c2ccccc2[n+]1CC(=O)c1ccccc1` returned a half-inhibitory concentration (IC50) of 1.34 µM.
On to `O=C(C[n+]1ccn(CC=C(c2cc3ccccc3o2)c2cc3ccccc3o2)c1)c1ccccc1`, for which the IC50 was > 20 µM.
Turning to `COc1ccc(C(=O)C[n+]2cn(CC=C(c3cc4ccccc4o3)c3cc4ccccc4o3)c3cc(C)c(C)cc32)cc1`, inhibition was half-maximal at 9.46 µM (IC50).
As for `COc1ccc(C(=O)C[n+]2ccn(CC=C(c3cc4ccccc4o3)c3cc4ccccc4o3)c2)cc1`, the IC50 is > 20 µM.
The same measure, in the same setting: the same measure for `O=C(C[n+]1cn(CC=C(c2cc3ccccc3o2)c2cc3ccccc3o2)c2ccccc21)c1ccc(Br)cc1`: 6.05 µM.
As to `O=C(C[n+]1ccn(CC=C(c2cc3ccccc3o2)c2cc3ccccc3o2)c1)c1ccc(-c2ccccc2)cc1`, the half-maximal inhibitory concentration (IC50) came to 8.04 µM.
For `C(Cn1cnc2ccccc21)=C(c1cc2ccccc2o1)c1cc2ccccc2o1`, the IC50 was > 20 µM.

Another assay relates to A549. Nature of the assay: Antiproliferative activity against human […] cells by MTS assay. It is filed as functional, cell-based. On the technique in general: Tetrazolium assays rely on reduction of a dye to a coloured formazan, in cell work by metabolically active cells.
`O=C(C[n+]1cn(CC=C(c2cc3ccccc3o2)c2cc3ccccc3o2)c2ccccc21)c1ccc2ccccc2c1` had an IC50 of 1.54 µM.
The same measure, in the same setting: the same measure for `Cc1nc2ccccc2n1CC=C(c1cc2ccccc2o1)c1cc2ccccc2o1`: > 20 µM; for `O=C(C[n+]1cn(CC=C(c2cc3ccccc3o2)c2cc3ccccc3o2)c2ccccc21)c1ccccc1`: 6.02 µM.
Take `Cc1cc2ncn(CC=C(c3cc4ccccc4o3)c3cc4ccccc4o3)c2cc1C`: the half-inhibitory concentration (IC50) is > 20 µM.
For `C(Cn1ccnc1)=C(c1cc2ccccc2o1)c1cc2ccccc2o1`, the half-maximal inhibitory concentration (IC50) was > 20 µM.
Regarding `Cc1n(CC=C(c2cc3ccccc3o2)c2cc3ccccc3o2)c2ccccc2[n+]1CC(=O)c1ccccc1`, the IC50 is 3.5 µM.
As for `O=C(C[n+]1ccn(CC=C(c2cc3ccccc3o2)c2cc3ccccc3o2)c1)c1ccccc1`, the half-inhibitory concentration (IC50) is > 20 µM.
For `COc1ccc(C(=O)C[n+]2cn(CC=C(c3cc4ccccc4o3)c3cc4ccccc4o3)c3cc(C)c(C)cc32)cc1`, the IC50 is 8.25 µM. That is a single-digit micromolar value.
Regarding `COc1ccc(C(=O)C[n+]2ccn(CC=C(c3cc4ccccc4o3)c3cc4ccccc4o3)c2)cc1`, the IC50 is > 20 µM.
Still for that read-out and setting: the value for `O=C(C[n+]1cn(CC=C(c2cc3ccccc3o2)c2cc3ccccc3o2)c2ccccc21)c1ccc(Br)cc1` was 6.46 µM; that for `O=C(C[n+]1ccn(CC=C(c2cc3ccccc3o2)c2cc3ccccc3o2)c1)c1ccc(-c2ccccc2)cc1` was 9.05 µM; that for `C(Cn1cnc2ccccc21)=C(c1cc2ccccc2o1)c1cc2ccccc2o1` was > 20 µM.

The subject of a further assay is MCF7. Description: Antiproliferative activity against human MCF7 cells by MTS assay. It counts as functional, cell-based.
Molecule `O=C(C[n+]1cn(CC=C(c2cc3ccccc3o2)c2cc3ccccc3o2)c2ccccc21)c1ccc2ccccc2c1` gave an IC50 of 1.44 µM.
On to `Cc1nc2ccccc2n1CC=C(c1cc2ccccc2o1)c1cc2ccccc2o1`, for which the 50% inhibitory concentration (IC50) is > 20 µM.
Molecule `O=C(C[n+]1cn(CC=C(c2cc3ccccc3o2)c2cc3ccccc3o2)c2ccccc21)c1ccccc1` came in with a concentration for half-maximal inhibition (IC50) of 1.56 µM.
With `Cc1cc2ncn(CC=C(c3cc4ccccc4o3)c3cc4ccccc4o3)c2cc1C`, the IC50 was > 20 µM.
Regarding `C(Cn1ccnc1)=C(c1cc2ccccc2o1)c1cc2ccccc2o1`, the IC50 is > 20 µM.
`Cc1n(CC=C(c2cc3ccccc3o2)c2cc3ccccc3o2)c2ccccc2[n+]1CC(=O)c1ccccc1`: 0.8 µM corresponded to half-maximal inhibition (IC50).
On to `O=C(C[n+]1ccn(CC=C(c2cc3ccccc3o2)c2cc3ccccc3o2)c1)c1ccccc1`, for which 11.2 µM corresponded to half-maximal inhibition (IC50).
With `COc1ccc(C(=O)C[n+]2cn(CC=C(c3cc4ccccc4o3)c3cc4ccccc4o3)c3cc(C)c(C)cc32)cc1`, the IC50 turned out to be 7.97 µM. The IC50 values of the last two molecules are within 1.5-fold of each other.
Regarding `COc1ccc(C(=O)C[n+]2ccn(CC=C(c3cc4ccccc4o3)c3cc4ccccc4o3)c2)cc1`, the half-inhibitory concentration (IC50) is > 20 µM.
In turn, `O=C(C[n+]1cn(CC=C(c2cc3ccccc3o2)c2cc3ccccc3o2)c2ccccc21)c1ccc(Br)cc1` gave an IC50 of 1.63 µM.
The molecule `O=C(C[n+]1ccn(CC=C(c2cc3ccccc3o2)c2cc3ccccc3o2)c1)c1ccc(-c2ccccc2)cc1` displayed an IC50 of 7.57 µM.
On to `C(Cn1cnc2ccccc21)=C(c1cc2ccccc2o1)c1cc2ccccc2o1`, for which the IC50 is > 20 µM.

In another assay the test system is SW480. Nature of the assay: Antiproliferative activity against human SW480 cells by MTS assay. It is filed as functional, cell-based.
As for `O=C(C[n+]1cn(CC=C(c2cc3ccccc3o2)c2cc3ccccc3o2)c2ccccc21)c1ccc2ccccc2c1`, half-maximal inhibition (IC50) was put at 1.77 µM.
Same read-out and setting: the value for `Cc1nc2ccccc2n1CC=C(c1cc2ccccc2o1)c1cc2ccccc2o1` was > 20 µM; that for `O=C(C[n+]1cn(CC=C(c2cc3ccccc3o2)c2cc3ccccc3o2)c2ccccc21)c1ccccc1` was 1.92 µM.
With `Cc1cc2ncn(CC=C(c3cc4ccccc4o3)c3cc4ccccc4o3)c2cc1C`, the IC50 is > 20 µM.
Consider `C(Cn1ccnc1)=C(c1cc2ccccc2o1)c1cc2ccccc2o1`, for which the IC50 was > 20 µM.
`Cc1n(CC=C(c2cc3ccccc3o2)c2cc3ccccc3o2)c2ccccc2[n+]1CC(=O)c1ccccc1`: the IC50 was 0.79 µM.
`O=C(C[n+]1ccn(CC=C(c2cc3ccccc3o2)c2cc3ccccc3o2)c1)c1ccccc1`: the IC50 was 6.44 µM.
Still for that read-out and setting: the value for `COc1ccc(C(=O)C[n+]2cn(CC=C(c3cc4ccccc4o3)c3cc4ccccc4o3)c3cc(C)c(C)cc32)cc1` was 5.8 µM; that for `COc1ccc(C(=O)C[n+]2ccn(CC=C(c3cc4ccccc4o3)c3cc4ccccc4o3)c2)cc1` was > 20 µM; that for `O=C(C[n+]1cn(CC=C(c2cc3ccccc3o2)c2cc3ccccc3o2)c2ccccc21)c1ccc(Br)cc1` was 1.43 µM.
Molecule `O=C(C[n+]1ccn(CC=C(c2cc3ccccc3o2)c2cc3ccccc3o2)c1)c1ccc(-c2ccccc2)cc1` came in with an IC50 of 7.2 µM.
Still for that read-out and setting: the same measure for `C(Cn1cnc2ccccc21)=C(c1cc2ccccc2o1)c1cc2ccccc2o1`: > 20 µM.
